Read-outs that look alike come from different tables or passages of the source.
Tests used:
[1] = molecular target: T1, soluble guanylate cyclase (sGC) (Homo sapiens (Human), UniProt Q02108+Q02153); assay: sGC-HEK-cGMP assay run in the absence of SNP (HEK WC assay); format: cell-based; conditions: for HEK WC Assay (fold increase at 30 μM in the absence of SNP) / HEK WC Assay (fold increase at 30 μM): compound at 30 μM; for HEK WC Assay (fold increase at 10 μM): compound at 10 μM; for HEK WC Assay (fold increase at 10 μM) / HEK WC Assay (fold increase at 30 μM): no SNP, increase in the sGC receptor activity
Summary of the method: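 HEK293 cells with endogenous sGC, preincubated 15 min at 37° C with 0.5 mM IBMX, then exposed to test compound 10 min at 37° C without SNP. Cells lysed in 0.1 M HCl; cGMP quantified by LC/MS against a standard curve. EC50 from concentration-response curves.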

[2] = molecular target: T1, soluble guanylate cyclase (sGC); assay: sGC-HEK-cGMP assay run with SNP incubation (HEK WC assay); format: cell-based; conditions: for HEK WC Assay (fold increase at 30 μM in the presence of 10 μM SNP): compound at 30 μM; for EC50: in the presence of 10 uM SNP; for Emax at 10 µM: read-out: HEK WC Assay (% Emax at 10 uM/with 10 uM SNP); for Emax at 30 µM: read-out: HEK WC Assay (% Emax at 30 uM/with 10 uM SNP)
Summary of the method: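 HEK293 cells with endogenous sGC were pretreated with 0.5 mM IBMX for 15 min at 37 °C, then exposed to test compound plus sodium nitroprusside for 10 min at 37 °C.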

Thoracic aortic rings = assay: Alternative thoracic aortic rings assay (Example 19b; resting tension as 100% inhibition); parameters: species or system rat; conditions: Rattus norvegicus, Table 10B
Method: Thoracic aortic rings were dissected from anesthetized (isoflurane) male Sprague-Dawley rats weighing 275-299 g. Tissues were immediately transferred to ice-cold Krebs-Henseleit solution, which had been aerated with 95% O2 and 5% CO2 for 30 minutes. Following removal of connective tissue, aortic sections were cut into 4 rings (˜2 mm each) and suspended on 2 L-shaped hooks, with one hook fixed at the bottom of the tissue bath (Schuler Organ Bath, Harvard Apparatus) and the other connected to a force transducer (F30 Force Transducer, Harvard Apparatus). Baths contained Krebs Henseleit solution (10 mL) heated to 37° C. and aerated with 95% O2 and 5% CO2. Rings were brought to an initial tension of 0.3-0.5 g and gradually raised to a resting tension of 1.0 g over 60 minutes. Rings were rinsed with Krebs Henseleit solution (heated to 37° C. and aerated with 95% O2 and 5% CO2) at 15 minute intervals until a stable baseline was obtained. Rings were considered to be stable after a resting tension of 1.0 g was maintained (for approximately 10 minutes) without need for adjustment. Rings were then contracted with 100 ng/mL phenylephrine by adding 100 uL of a 10 μg/mL phenylephrine stock solution. Tissues achieving a stable contraction were then treated in a cumulative, dose dependent manner with test compounds prepared in dimethylsulfoxide (DMSO). In some cases, tissues were rinsed three times over a 5 minute period with Krebs-Heinseleit's solution (heated to 37° C. and aerated with 95% O2 and 5% CO2), allowed to stabilize at baseline, and then used for characterization of other test articles or DMSO effects. All data were collected using the HSE-ACAD software provided by Harvard Apparatus. […] EC50 values were calculated from concentration-response curves generated with GraphPad Prism Software.

[3] = molecular target: Human soluble guanylate cyclase enzyme (hsGC) (Homo sapiens (Human), UniProt Q02108+Q02153); assay: Purified human sGC enzyme activity assay; format: biochemical; conditions: for sGC Enzyme (specific activity at 10 μM) / sGC Enzyme (fold increase at 10 μM without SNP): 10 μM compound; for sGC Enzyme (specific activity at 30 μM) / sGC Enzyme (fold increase at 30 μM without SNP): 30 μM compound
Method: Human soluble guanylate cyclase enzyme (hsGC) obtained from Enzo Inc. (P/N: ALX-201-177) was used to evaluate the activity of test compounds. The assay reactions contained 0.1 M Tris (pH 8.0), 0.5 mg/mL BSA (pH 8.0), 2 mM DTT, 2 mM MgCl2, 300 μM GTP, 1 mM 3-isobutyl-1-methylxanthine (IBMX) and 5 ng human soluble guanylate cyclase enzyme. Test compounds in DMSO were then added (2 μL, 10 or 30 μM final concentration) and incubated (200 μL, 96-well plate format) at 37° C. for 30 minutes. The controls were carried out using 2 μL DMSO. After the 30 minute incubation, the reaction was stopped with the addition of 200 μL of cold methanol. The plate was then centrifuged at 3,200 rpm for 10 minutes at room temperature. Supernatants (200 μL) were collected and transferred to a new 96 well plate for analysis.
An 8 point cGMP (Sigma-Aldrich P/N: G6129) standard curve was prepared in assay buffer ranging from 0.156-20 μM. Samples for the cGMP standard curve were then diluted with an equal volume of methanol resulting in final cGMP concentrations of 0.078-10 μM.
The cGMP standard curve was generated using GraphPad Prism Software.
Calculations: Specific Activity was determined by the amount of cGMP formed (nmoles) per mg of sGC per min. Enzyme “fold-change” was calculated by dividing Specific Activity for test compounds by Specific Activity of DMSO controls.

[4] = read-out: HEK WC Assay (% Emax at 1 μM with 10 uM SNP)
[5] = read-out: HEK WC Assay (% Emax at 10 μM with 10 uM SNP)
[6] = read-out: HEK WC Assay (% Emax at 30 μM with 10 uM SNP)

Chain of Human soluble guanylate cyclase enzyme (hsGC) (Q02153 whole entry): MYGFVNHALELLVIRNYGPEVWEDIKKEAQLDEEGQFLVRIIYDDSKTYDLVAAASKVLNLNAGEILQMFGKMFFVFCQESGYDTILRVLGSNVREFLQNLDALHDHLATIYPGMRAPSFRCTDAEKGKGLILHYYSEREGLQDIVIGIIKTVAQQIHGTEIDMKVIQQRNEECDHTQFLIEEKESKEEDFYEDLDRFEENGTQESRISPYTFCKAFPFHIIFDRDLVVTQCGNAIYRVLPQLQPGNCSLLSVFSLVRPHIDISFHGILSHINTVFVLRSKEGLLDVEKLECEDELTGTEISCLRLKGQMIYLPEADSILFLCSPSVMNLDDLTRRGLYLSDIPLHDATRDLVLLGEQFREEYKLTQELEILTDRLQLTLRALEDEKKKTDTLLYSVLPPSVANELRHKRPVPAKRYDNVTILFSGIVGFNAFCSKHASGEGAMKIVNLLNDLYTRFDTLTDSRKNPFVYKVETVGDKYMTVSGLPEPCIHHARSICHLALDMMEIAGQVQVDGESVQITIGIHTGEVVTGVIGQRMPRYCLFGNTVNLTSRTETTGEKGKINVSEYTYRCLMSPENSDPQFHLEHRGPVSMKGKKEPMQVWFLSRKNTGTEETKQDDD
Chain of Human soluble guanylate cyclase enzyme (hsGC) (Q02108 whole entry): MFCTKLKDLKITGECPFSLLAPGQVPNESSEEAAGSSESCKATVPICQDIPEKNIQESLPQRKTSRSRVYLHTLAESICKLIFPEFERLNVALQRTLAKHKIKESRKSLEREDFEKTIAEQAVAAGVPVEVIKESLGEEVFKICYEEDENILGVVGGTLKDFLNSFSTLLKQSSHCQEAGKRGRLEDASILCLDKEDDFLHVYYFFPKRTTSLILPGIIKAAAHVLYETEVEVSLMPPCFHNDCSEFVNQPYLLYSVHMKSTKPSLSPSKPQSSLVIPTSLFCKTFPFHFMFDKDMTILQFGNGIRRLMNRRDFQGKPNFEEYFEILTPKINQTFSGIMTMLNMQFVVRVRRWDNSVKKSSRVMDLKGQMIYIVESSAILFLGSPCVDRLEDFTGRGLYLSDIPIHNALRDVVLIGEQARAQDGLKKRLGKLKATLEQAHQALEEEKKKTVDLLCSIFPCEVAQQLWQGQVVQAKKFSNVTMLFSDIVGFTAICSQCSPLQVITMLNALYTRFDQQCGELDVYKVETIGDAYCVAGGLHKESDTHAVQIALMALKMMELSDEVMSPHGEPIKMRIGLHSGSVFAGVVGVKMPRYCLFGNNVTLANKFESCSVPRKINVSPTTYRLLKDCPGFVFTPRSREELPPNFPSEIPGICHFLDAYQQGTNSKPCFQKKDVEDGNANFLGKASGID
T1 sequence (Q02153 whole entry): as the sequence (Q02153 whole entry) above
T1 sequence (Q02108 whole entry): as the sequence (Q02108 whole entry) above

Row | SMILES | HEK WC Assay (fold increase at 30 μM in the absence of SNP) [1] | HEK WC Assay (fold increase at 30 μM in the presence of 10 μM SNP) [2] | EC50 [2] | Emax [2, 4] | Emax [2, 5] | Emax [2, 6] | inhibition at 1 µM (Thoracic aortic rings; 1 μM, read-out: Percent Relaxation at 1 μM) | inhibition at 3 µM (Thoracic aortic rings; 3 μM, read-out: Percent Relaxation at 3 μM) | inhibition at 10 µM (Thoracic aortic rings; 10 μM, read-out: Percent Relaxation at 10 μM) | EC50 (Thoracic aortic rings; read-out: Aortic Ring EC50) | HEK WC Assay (fold increase at 10 μM) [1] | HEK WC Assay (fold increase at 30 μM) [1] | Emax at 10 µM [2] | Emax at 30 µM [2] | sGC Enzyme (specific activity at 10 μM) [3] | sGC Enzyme (fold increase at 10 μM without SNP) [3] | sGC Enzyme (specific activity at 30 μM) [3] | sGC Enzyme (fold increase at 30 μM without SNP) [3]
1 | CC(C)(C)C(=O)Nc1cnc(-c2cc(-c3ccon3)n(Cc3ccccc3F)n2)nc1N [Compound I-277] | D (D = 5 to <10 fold increase) | E (E = 10 to <20 fold increase) | < 20 µM | 60 to 80% | 80 to 100% | 80 to 100% | 60 to 80% | 80 to 100% | 100 to 120% | < 2 µM | – | – | – | – | – | – | – | –
2 | Nc1ccnc(-c2cc(-c3ccccn3)nn2Cc2ccccc2F)n1 [Compound I-41] | – | – | – | – | – | – | – | – | – | – | A (A = no increase to <1 fold increase) | A (A = no increase to <1 fold increase) | 0 to 10% | 0 to 10% | B (B = 50 to <100) | A (A = no increase to <2 fold increase) | C (C = 100 to <200) | B (B = 2 to <5 fold increase)
3 | Fc1ccccc1Cn1nc(-c2ncccn2)cc1-c1ccncc1 [Compound I-19] | – | – | – | – | – | – | – | – | – | – | A (A = no increase to <1 fold increase) | A (A = no increase to <1 fold increase) | – | – | – | A (A = no increase to <2 fold increase) | – | A (A = no increase to <2 fold increase)
4 | Fc1ccccc1Cn1nc(-c2ncccn2)cc1-c1cccnc1 [Compound I-10] | – | – | – | – | – | – | – | – | – | – | A (A = no increase to <1 fold increase) | A (A = no increase to <1 fold increase) | 0 to 10% | 0 to 10% | D (D = 200 to <500) | B (B = 2 to <5 fold increase) | D (D = 200 to <500) | B (B = 2 to <5 fold increase)
5 | Fc1ccccc1Cn1nc(-c2ncccn2)cc1-c1cnc2ccoc2c1 [Compound I-32] | – | – | – | – | – | – | – | – | – | – | A (A = no increase to <1 fold increase) | A (A = no increase to <1 fold increase) | 0 to 10% | 0 to 10% | C (C = 100 to <200) | A (A = no increase to <2 fold increase) | D (D = 200 to <500) | A (A = no increase to <2 fold increase)
6 | COc1cccc(-c2cc(-c3ncccn3)n(Cc3ccccc3F)n2)n1 [Compound I-15] | – | – | – | – | – | – | – | – | – | – | A (A = no increase to <1 fold increase) | A (A = no increase to <1 fold increase) | 0 to 10% | 0 to 10% | C (C = 100 to <200) | A (A = no increase to <2 fold increase) | C (C = 100 to <200) | A (A = no increase to <2 fold increase)
7 | Fc1ccccc1Cn1nc(-c2ccccn2)cc1-c1ccncn1 [Compound I-21] | – | – | – | – | – | – | – | – | – | – | A (A = no increase to <1 fold increase) | A (A = no increase to <1 fold increase) | 0 to 10% | 10 to 20% | C (C = 100 to <200) | A (A = no increase to <2 fold increase) | C (C = 100 to <200) | A (A = no increase to <2 fold increase)
8 | Fc1ccccc1Cn1nc(-c2ccccn2)cc1-c1cnccn1 [Compound I-34] | – | – | – | – | – | – | – | – | – | – | A (A = no increase to <1 fold increase) | A (A = no increase to <1 fold increase) | 0 to 10% | 0 to 10% | B (B = 50 to <100) | A (A = no increase to <2 fold increase) | C (C = 100 to <200) | A (A = no increase to <2 fold increase)
9 | Fc1ccccc1Cn1nc(-c2ccccn2)cc1-c1cccnc1 [Compound I-20] | – | – | – | – | – | – | – | – | – | – | A (A = no increase to <1 fold increase) | A (A = no increase to <1 fold increase) | – | – | C (C = 100 to <200) | A (A = no increase to <2 fold increase) | D (D = 200 to <500) | A (A = no increase to <2 fold increase)
10 | Fc1ccccc1Cn1nc(-c2ccccn2)cc1-c1ccncc1 [Compound I-11] | – | – | – | – | – | – | – | – | – | – | A (A = no increase to <1 fold increase) | A (A = no increase to <1 fold increase) | 0 to 10% | 0 to 10% | – | A (A = no increase to <2 fold increase) | C (C = 100 to <200) | A (A = no increase to <2 fold increase)
11 | Oc1ccccc1Cn1nc(-c2ncccn2)cc1-c1ccon1 [Compound I-207] | B (B = 1 to <2 fold increase) | C (C = 2 to <5 fold increase) | 900 to 1200 µM | 0 to 10% | 0 to 10% | 0 to 10% | – | – | – | – | – | – | – | – | – | – | – | –
12 | Oc1coc(-c2cc(-c3ncccn3)nn2Cc2ccccc2F)n1 [Compound I-295] | B (B = 1 to <2 fold increase) | C (C = 2 to <5 fold increase) | 40 to 60 µM | – | 0 to 10% | 10 to 20% | – | – | – | – | – | – | – | – | – | – | – | –
13 | Clc1ccccc1Cn1nc(-c2ncccn2)cc1-c1ccon1 [Compound I-200] | B (B = 1 to <2 fold increase) | C (C = 2 to <5 fold increase) | 300 to 600 µM | 0 to 10% | 0 to 10% | 0 to 10% | – | – | – | – | – | – | – | – | – | – | – | –
14 | CC(C)(C(=O)Nc1cnc(-c2cc(-c3ccon3)n(Cc3ccccc3F)n2)nc1N)c1ccccc1 [Compound I-236] | C (C = 2 to <5 fold increase) | E (E = 10 to <20 fold increase) | < 20 µM | 20 to 40% | 60 to 80% | 60 to 80% | – | – | – | – | – | – | – | – | – | – | – | –

From US10189809B2, “SGC stimulators” (Ironwood Pharmaceuticals, Inc., priority 2010, dated 2019)
